Test results reported in paper PMC4865845, “A human genome-wide loss-of-function screen identifies effective chikungunya antiviral drugs” (Nature Communications, 2016).

test system: CHIKV; format: cell-based, chikungunya virus

Row | Substance | Score_si2 | Score_si1 | Score_si3 | Score_si4
1 | Hs_GUCY1B3_1 (sense AAGGGTCAAATGATCTACTTA; chemistry not given here) [reference compound] | -0.88 | – | – | –
2 | Hs_GUCY1B3_2 (sense ACCTAACATGGTGATCTGCAA; chemistry not given here) [reference compound] | – | -1.2 | – | –
3 | Hs_GUCY1B3_3 (sense CAAGACTTTCTTCTAGATATA; chemistry not given here) [reference compound] | – | – | -0.83 | –
4 | Hs_HMGA1L4_1 (sense AAGCCTCAGCTCAAACTCAAA; chemistry not given here) | – | 2.38 | – | –
5 | Hs_HMGA1L4_2 (sense CTGGCTGGATGAAGACAGTAA; chemistry not given here) | – | – | – | 0.45
6 | Hs_HMMR_2 (sense AAGTTAAGTCTTCGGAATCAA; chemistry not given here) | – | 2.42 | – | –
7 | Hs_HSPE1_4 (sense CTGAAATAAGTCACTATTGAA; chemistry not given here) | – | – | – | 1.81
8 | Hs_HSPE1_6 (sense GAGGGAGTAATGGCAGGACAA; chemistry not given here) | – | 2.37 | – | –
9 | Hs_HTATIP_8 (sense CACCACATTGCCTGTCCTCTA; chemistry not given here) | – | 2.67 | – | –
10 | Hs_INTS8_2 (sense CTGGGAATTAAAGACAATTTA; chemistry not given here) | 2.65 | – | – | –
11 | Hs_IQGAP1_1 (sense CTGGGAGATAATGCCCACTTA; chemistry not given here) | 1.04 | – | – | –
12 | Hs_IQGAP1_3 (sense AAGGCATATCAAGATCGGTTA; chemistry not given here) | – | – | – | 0.77
13 | Hs_IQGAP1_4 (sense TGCCCACTTAAGCATCATTAA; chemistry not given here) | – | – | 0.98 | –
14 | Hs_IRAK1_5 (sense CCGGGCAATTCAGTTTCTACA; chemistry not given here) | – | – | – | 1.36
15 | Hs_IRAK1_6 (sense TCCCATCGCCATGCAGATCTA; chemistry not given here) | – | – | 1.57 | –
16 | Hs_IRAK1_10 (sense AAGCAAGTCAGGTTTCATGTA; chemistry not given here) | 1.62 | – | – | –
17 | Hs_ITGB4BP_1 (sense CTGGATCTATCATTACTGCAA; chemistry not given here) | – | – | 1.14 | –
18 | Hs_ITGB4BP_2 (sense AAGCTACTGTGTCTTCAGCAA; chemistry not given here) | – | – | – | 1.08
19 | Hs_ITGB4BP_3 (sense CAGGGAGACAGAAGAAATTCT; chemistry not given here) | – | 1.54 | – | –
20 | Hs_KAZALD1_1 (sense CCGGAGGAGCTGCTTTCTGAA; chemistry not given here) | 1.12 | – | – | –
21 | Hs_KAZALD1_2 (sense ACAGGGCTAGGCACCAATAAA; chemistry not given here) | – | 1.74 | – | –
22 | Hs_KCTD10_1 (sense AAGGCTTTGTTTAGGGATCAA; chemistry not given here) | – | 2.04 | – | –
23 | Hs_KIAA0252_2 (sense AAGGAATTATCTATTAAAGAA; chemistry not given here) | – | 2.74 | – | –
24 | Hs_KIAA0674_1 (sense CCGGAAACAACTGGAACTCAA; chemistry not given here) | – | 1.96 | – | –
25 | Hs_KIAA0674_2 (sense CCCGGCAACATAACACTGAAA; chemistry not given here) | 1.52 | – | – | –
26 | Hs_KIAA0947_2 (sense CTGGCAGTTTATTGCTCTTAA; chemistry not given here) | – | 2.71 | – | –
27 | Hs_KIAA1012_2 (sense CAGGGTTGCTATTTACTTAAA; chemistry not given here) | – | 2.22 | – | –

Row | Substance | Score_si2 | Score_si1 | Score_si3 | Score_si4
28 | Hs_KRTCAP2_5 (sense CTCGCTCACTGCCTTCAATAA; chemistry not given here) | – | – | 1.15 | –
29 | Hs_KRTCAP2_6 (sense CTGACCCTGAATGTTCAATAA; chemistry not given here) | – | 1.71 | – | –
30 | Hs_KRTHA2_1 (sense CAGATGGAGGAGCTTAACCAA; chemistry not given here) | – | 1.15 | – | –
31 | Hs_KRTHA2_2 (sense ATGGTTGTGAACATTGATAAT; chemistry not given here) | 1.02 | – | – | –
32 | Hs_LBX1_1 (sense CACCAGATCTATGAATTGGAA; chemistry not given here) | – | – | 1.41 | –
33 | Hs_LBX1_2 (sense CAAGGCCGAGATGACTTCCAA; chemistry not given here) | – | 2 | – | –
34 | Hs_LIP8_1 (sense CTGGACTTTGCTAAAGCAGAA; chemistry not given here) | – | – | – | 0.62
35 | Hs_LIP8_2 (sense AAGCATATCTTTGAGATGGAA; chemistry not given here) | – | 2.14 | – | –
36 | Hs_LOC283377_3 (sense CAGGCCTTTCTCAGACTGTAT; chemistry not given here) | – | 2.72 | – | –
37 | Hs_LOC283377_7 (sense AAAGCTAGGCATACAGCCAAA; chemistry not given here) | – | – | 0.76 | –
38 | Hs_LOC407835_4 (sense CAGGGAGATCAGCATCTGCAT; chemistry not given here) | 0.79 | – | – | –
39 | Hs_LOC407835_6 (sense CTGCTGGACTATATTGTGAAA; chemistry not given here) | – | – | 0.74 | –
40 | Hs_LOH12CR1_1 (sense CCCGATGTCATCAAGTTGCAA; chemistry not given here) | – | 2.42 | – | –
41 | Hs_LOXL2_1 (sense CCGGAGTTGCCTGCTCAGAAA; chemistry not given here) | 1.33 | – | – | –
42 | Hs_LOXL2_3 (sense CAGGCAATGAGAAGTCCATTA; chemistry not given here) | – | 2.38 | – | –
43 | Hs_LOXL2_4 (sense CTCGAGATTCCGGAAAGCATA; chemistry not given here) | – | – | – | 0.97
44 | Hs_LRIG2_1 (AGGGATGTCATTGTAAATATA; chemistry not given here) [reference compound] | – | -2.53 | – | –
45 | Hs_LRP6_2 (CTGGATTGTTATCCGACTGAA; chemistry not given here) | 1.63 | – | – | –
46 | Hs_LRP6_7 (CTGGATGGTTCTGACCGTGTA; chemistry not given here) | – | 1.93 | – | –
47 | Hs_LTBP3_1 (CCGGGACAGATCTCAGCAGAA; chemistry not given here) | 1.9 | – | – | –
48 | Hs_LTBP3_2 (CCGCTACTGCGTGGATGTGAA; chemistry not given here) | – | – | – | 1.32
49 | Hs_MAP2K2_9 (TTCCAGGAGTTTGTCAATAAA; chemistry not given here) | – | – | – | 0.51
50 | Hs_MAP3K14_1 (CAGGACTCACGTAGCATTAAA; chemistry not given here) | 1.59 | – | – | –
51 | Hs_MAP3K14_5 (CACATGCATGTGACTCCTCAA; chemistry not given here) | – | – | – | 0.74
52 | Hs_MAP3K14_6 (TACCTAGTGCATGCTCTGCAA; chemistry not given here) | – | – | 1.59 | –
53 | Hs_MAZ_2 (CCGCGACGTCTACCACCTGAA; chemistry not given here) | – | 2.43 | – | –
54 | Hs_MDS032_1 (TCGAATCATGCCTAAACTCAA; chemistry not given here) | – | – | – | 1.39

Row | Substance | Score_si2 | Score_si1 | Score_si3 | Score_si4
55 | Hs_MGC2803_1 (TGCGATGTACATAACTATTTA; chemistry not given here) | – | – | – | -0.65
56 | Hs_MGC2803_2 (CGGGAACAAACTAGCCCTCAA; chemistry not given here) | – | 2.43 | – | –
57 | Hs_MGC11102_1 (TAGCGTGGCTTTAAACATATA; chemistry not given here) | 1.11 | – | – | –
58 | Hs_MGC11102_2 (CAGGTGGTTTGTTCTTTCTTA; chemistry not given here) | – | 1.25 | – | –
59 | Hs_MGC13138_1 (CTGGCATTTCCCGCTCATTTA; chemistry not given here) [reference compound] | – | -2.19 | – | –
60 | Hs_MGC21830_1 (CCGGAGACAGCGGCTGATTTA; chemistry not given here) [reference compound] | – | -1.05 | – | –
61 | Hs_MGC21830_2 (CAGCTGGGCGGTGCTGTTCGA; chemistry not given here) [reference compound] | -1.02 | – | – | –
62 | Hs_MRPS12_2 (CTGCTGGGACAAGACACTGTA; chemistry not given here) | 1.92 | – | – | –
63 | Hs_MRPS12_7 (TTCCATCAGGACCACTATTAA; chemistry not given here) | – | 1.99 | – | –
64 | Hs_NAG_1 (CAGAGGAAGATTGAAAGTGAA; chemistry not given here) | 2.12 | – | – | –
65 | Hs_NAG_2 (CAGACAGAAATTCTTTATCAA; chemistry not given here) | – | 2.66 | – | –
66 | Hs_NCOA1_1 (CAGCGGGAACTGTACAGTCAA; chemistry not given here) | 1.96 | – | – | –
67 | Hs_NCOA1_14 (CTCCTAATATTTCGACATTAA; chemistry not given here) | – | 2.06 | – | –
68 | Hs_NDUFA2_2 (TCCACTGAGGATTAAGAGCAA; chemistry not given here) | – | 2.51 | – | –
69 | Hs_NDUFA7_1 (CAGGGAGAATGTGACCTAATT; chemistry not given here) [reference compound] | – | -2.23 | – | –
70 | Hs_NPAT_1 (ACCAATGCACATATAATTTAA; chemistry not given here) [reference compound] | -1.26 | – | – | –
71 | Hs_NPAT_2 (AAGGCACATCTTCAAACAATA; chemistry not given here) [reference compound] | – | -1.61 | – | –
72 | Hs_NPEPL1_1 (CTGATTTATAGGGCAAGAGAA; chemistry not given here) | – | – | – | 1.11
73 | Hs_NPEPL1_2 (CACCTTCCTCGAGGAGATTAA; chemistry not given here) | 1.71 | – | – | –
74 | Hs_NPEPL1_3 (CTGCAATGAGATGAACACCGA; chemistry not given here) | – | 2.35 | – | –
75 | Hs_NPEPL1_4 (CAGAATTCACTTGAGGTTCAA; chemistry not given here) | – | – | 1.44 | –
76 | Hs_NRCAM_1 (CAGGCCTTCAGTACAAAGTTA; chemistry not given here) | – | – | 0.75 | –
77 | Hs_NRCAM_2 (AACGCTCATAATTAACATCAT; chemistry not given here) | – | – | – | 0.35
78 | Hs_NRCAM_3 (GACGTTTGGTTTAAAGAATTA; chemistry not given here) | 0.93 | – | – | –
79 | Hs_NRCAM_4 (AGGGTGGTAAATATCCAGTTA; chemistry not given here) | – | 1.08 | – | –
